Laboratory results: the supplement of paper PMC6045584
± gives the standard deviation of the averaged measurements.

Columns and labels:
Assay in all cases: surviving fraction relative to DMSO-only wells; higher = less growth inhibition
Conditions in all cases: exposure time: 5 days
[1] = compound: CCCCCCCCCCCCCCCC(=O)Nc1ccn([C@@H]2O[C@H](CO)[C@@H](O)[C@@H]2C#N)c(=O)n1 [SAPACITABINE]
Summary of the method: (§1)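 Tumour cell lines in log phase were plated in 384-well plates at 250–500 cells per well, then, after 24 hours, exposed continuously for five days to inhibitors at 0.5, 1, 5, 10, 50, 100, 500 and 1000 nM. Viability came from CellTiter-Glo luminescence, and surviving fraction is that signal normalised to the median of DMSO-only wells. Plates were read after 10 minutes at room temperature, and each line, screened three times, was kept only when replicate Pearson r was >0.7 and median Z' was >0.3.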

[2] = compound: Cn1cc(C2=Nc3cc(NC(=O)C(N)C4CCCCC4)cc4c3C2=CNNC4=O)cn1
Summary of the method: as §1

[3] = compound: Nc1nc2[nH]cnc2c(=S)[nH]1 [TIOGUANINE]
Summary of the method: as §1

[4] = compound: C=CC(=O)Nc1cc2c(Nc3ccc(F)c(Cl)c3)ncnc2cc1OCCCN1CCOCC1 [CANERTINIB]
Summary of the method: as §1

[5] = compound: CC[C@@H]1C(=O)N(C)c2cnc(Nc3ccc(C(=O)NC4CCN(C)CC4)cc3OC)nc2N1C1CCCC1 [BI-2536]
Summary of the method: as §1

SG28 HEADNECK
surviving fraction ([1]; 100 nM): 0.864 ± 0.054 | surviving fraction ([1]; 500 nM): 0.934 ± 0.11 | surviving fraction ([1]; 1000 nM): 0.422 ± 0.0014 | surviving fraction ([2]; 0.5 nM): 0.971 ± 0.052 | surviving fraction ([2]; 1 nM): 1.04 ± 0.14 | surviving fraction ([2]; 5 nM): 0.991 ± 0.044 | surviving fraction ([2]; 10 nM): 1.01 ± 0.047 | surviving fraction ([2]; 50 nM): 0.83 ± 0.029 | surviving fraction ([2]; 100 nM): 0.661 ± 0.022 | surviving fraction ([2]; 500 nM): 0.427 ± 0.012 | surviving fraction ([2]; 1000 nM): 0.317 ± 0.026 | surviving fraction ([3]; 0.5 nM): 1.07 ± 0.045 | surviving fraction ([3]; 1 nM): 1.05 ± 0.14 | surviving fraction ([3]; 5 nM): 1.01 ± 0.14 | surviving fraction ([3]; 10 nM): 0.994 ± 0.076 | surviving fraction ([3]; 50 nM): 1.06 ± 0.089 | surviving fraction ([3]; 100 nM): 1.05 ± 0.12 | surviving fraction ([3]; 500 nM): 1.02 ± 0.038 | surviving fraction ([3]; 1000 nM): 1.14 ± 0.082 | surviving fraction ([4]; 0.5 nM): 0.824 ± 0.055 | surviving fraction ([4]; 1 nM): 0.803 ± 0.046 | surviving fraction ([4]; 5 nM): 0.627 ± 0.081 | surviving fraction ([4]; 10 nM): 0.621 ± 0.089 | surviving fraction ([4]; 50 nM): 0.642 ± 0.0092 | surviving fraction ([4]; 100 nM): 0.498 ± 0.059 | surviving fraction ([4]; 500 nM): 0.364 ± 0.073 | surviving fraction ([4]; 1000 nM): 0.366 ± 0.021 | surviving fraction ([5]; 0.5 nM): 1.19 ± 0.14 | surviving fraction ([5]; 1 nM): 1.063 ± 0.0017 | surviving fraction ([5]; 5 nM): 0.864 ± 0.04 | surviving fraction ([5]; 10 nM): 0.87 ± 0.046 | surviving fraction ([5]; 50 nM): 0.961 ± 0.11 | surviving fraction ([5]; 100 nM): 0.687 ± 0.064 | surviving fraction ([5]; 500 nM): 0.478 ± 0.084 | surviving fraction ([5]; 1000 nM): 0.279 ± 0.053
